Legend:
Assay in all cases: Apoptosis assay for NHL lines (Caspase 3/7-Glo)
Type in all cases: cell-based
SU-DHL-10 = settings: SU-DHL-10, NHL DLBCL, 24 hours, n = 1
Method: (§1) Apoptosis Assay for NHL Lines. Prior to testing, cells were grown and expanded in culture flasks to provide sufficient amounts of starting material. Cells were then diluted to their desired densities and added directly to compound-spotted 384-well plates. Cells were allowed to grow for 24 hours in 5% CO2 at 37° C. The apoptotic response was assessed by quantifying the activities of caspase 3 and caspase 7 (Caspase 3/7-Glo) in treated cells and control cells at the 24-hour time point. All data was normalized and represented as a value relative to the DMSO-treated cells. Results were then expressed as CalX, which is the minimum compound concentration required to double the levels of caspase 3/7 relative to those of the DMSO-treated cells during their treatment period.

SC-1 = settings: SC-1, NHL FL, 24 hours, n = 1
Method: as §1

U-2932 = settings: U-2932, NHL DLBCL, 24 hours, n = 1
Method: as §1

KASUMI-1 = settings: KASUMI-1, Leukemia M-AML, 24 hours, n = 1
Method: as §1

HL-60 = settings: HL-60, Leukemia M-AML, 24 hours, n = 1
Method: as §1

JEKO-1 = settings: JEKO-1, NHL MCL, 24 hours, n = 1
Method: as §1

Granta-519 = settings: Granta-519, NHL MCL, 24 hours, n = 1
Method: as §1

OCI-LY-10 = settings: OCI-LY-10, NHL DLBCL, 24 hours, n = 1
Method: as §1

WSU-FSCCL = settings: NHL FL, 24 hours, n = 1
Method: as §1

KG-1 = settings: KG-1, Leukemia M-AML, 24 hours, n = 1
Method: as §1

Toledo = settings: NHL DLBCL, 24 hours, n = 1
Method: as §1

THP-1 = settings: THP-1, Leukemia M-AML, 24 hours, n = 1
Method: as §1

SU-DHL-1 = settings: SU-DHL-1, ALCL T-cell, 24 hours, n = 1
Method: as §1

SU-DHL-6 = settings: SU-DHL-6, NHL DLBCL, 24 hours, n = 1
Method: as §1

JVM-2 = settings: JVM-2, NHL MCL, 24 hours, n = 1
Method: as §1

Pfeiffer = settings: NHL DLBCL, 24 hours, n = 1
Method: as §1

SU-DHL-4 = settings: SU-DHL-4, NHL DLBCL, 24 hours, n = 1
Method: as §1

OCI-LY-7 = settings: OCI-LY-7, NHL DLBCL, 24 hours, n = 1
Method: as §1

OCI-LY-3 = settings: OCI-LY-3, NHL DLBCL, 24 hours, n = 1
Method: as §1

NU-DHL-1 = settings: NU-DHL-1, NHL DLBCL, 24 hours, n = 1
Method: as §1

WSU-NHL = settings: NHL FL, 24 hours, n = 1
Method: as §1

SU-DHL-8 = settings: SU-DHL-8, NHL DLBCL, 24 hours, n = 1
Method: as §1

MOLM-13 = settings: MOLM-13, Leukemia M-AML, 24 hours, n = 1
Method: as §1

WSU-DLCL2 = settings: WSU-DLCL2, NHL DLBCL, 24 hours, n = 1
Method: as §1

JVM-13 = settings: JVM-13, NHL MCL, 24 hours, n = 1
Method: as §1

OCI-LY-19 = settings: OCI-LY-19, NHL DLBCL, 24 hours, n = 1
Method: as §1

REC-1 = settings: REC-1, NHL MCL, 24 hours, n = 1
Method: as §1

DOHH-2 = settings: DOHH-2, NHL FL, 24 hours, n = 1
Method: as §1

HT = settings: NHL DLBCL, 24 hours, n = 1
Method: as §1

Mino = settings: NHL MCL, 24 hours, n = 1
Method: as §1

SU-DHL-16 = settings: SU-DHL-16, NHL DLBCL, 24 hours, n = 1
Method: as §1

RC-K8 = settings: RC-K8, NHL DLBCL, 24 hours, n = 1
Method: as §1

U-2940 = settings: U-2940, NHL DLBCL, 24 hours, n = 1
Method: as §1

Farage = settings: NHL DLBCL, 24 hours, n = 1
Method: as §1

Structure (SMILES): CO[C@H]1CC[C@H](N2C(=O)CNc3ncc(-c4ccc(C(C)(C)O)nc4)nc32)CC1 [Compound 1, 7-(6-(2-hydroxypropan-2-yl)pyridin-3-yl)-1-((1r,4r)-4-methoxycyclohexyl)-3,4-dihydropyrazino-[2,3-b]pyrazin-2(1H)-one]
- CalX (minimum concentration to double caspase 3/7) (SU-DHL-10): 0.54
- CalX (minimum concentration to double caspase 3/7) (SC-1): 10
- CalX (minimum concentration to double caspase 3/7) (U-2932): 2.04
- Apoptotic (KASUMI-1): N/Y
- CalX (minimum concentration to double caspase 3/7) (KASUMI-1): 6.52
- CalX (minimum concentration to double caspase 3/7) (HL-60): 10
- CalX (minimum concentration to double caspase 3/7) (JEKO-1): 0.56
- CalX (minimum concentration to double caspase 3/7) (Granta-519): 10
- CalX (minimum concentration to double caspase 3/7) (OCI-LY-10): 0.7
- CalX (minimum concentration to double caspase 3/7) (WSU-FSCCL): 0.16
- CalX (minimum concentration to double caspase 3/7) (KG-1): 10
- Apoptotic (Toledo): N/Y
- CalX (minimum concentration to double caspase 3/7) (Toledo): 3.48
- Apoptotic (THP-1): N/Y
- CalX (minimum concentration to double caspase 3/7) (THP-1): 7.57
- CalX (minimum concentration to double caspase 3/7) (SU-DHL-1): 10
- CalX (minimum concentration to double caspase 3/7) (SU-DHL-6): 10
- Apoptotic (JVM-2): N/Y
- CalX (minimum concentration to double caspase 3/7) (JVM-2): 3.2
- CalX (minimum concentration to double caspase 3/7) (Pfeiffer): 10
- Apoptotic (SU-DHL-4): N/Y
- CalX (minimum concentration to double caspase 3/7) (SU-DHL-4): 5.15
- CalX (minimum concentration to double caspase 3/7) (OCI-LY-7): 0.07
- CalX (minimum concentration to double caspase 3/7) (OCI-LY-3): 0.67
- CalX (minimum concentration to double caspase 3/7) (NU-DHL-1): 0.41
- CalX (minimum concentration to double caspase 3/7) (WSU-NHL): 0.16
- CalX (minimum concentration to double caspase 3/7) (SU-DHL-8): 0.07
- Apoptotic (MOLM-13): N/Y
- CalX (minimum concentration to double caspase 3/7) (MOLM-13): 7.24
- CalX (minimum concentration to double caspase 3/7) (WSU-DLCL2): 0.19
- Apoptotic (JVM-13): N/Y
- CalX (minimum concentration to double caspase 3/7) (JVM-13): 4.27
- CalX (minimum concentration to double caspase 3/7) (OCI-LY-19): 1.13
- CalX (minimum concentration to double caspase 3/7) (REC-1): 0.79
- CalX (minimum concentration to double caspase 3/7) (DOHH-2): 0.14
- Apoptotic (HT): N/Y
- CalX (minimum concentration to double caspase 3/7) (HT): 5.62
- CalX (minimum concentration to double caspase 3/7) (Mino): 0.53
- CalX (minimum concentration to double caspase 3/7) (SU-DHL-16): 0.11
- Apoptotic (RC-K8): N/Y
- CalX (minimum concentration to double caspase 3/7) (RC-K8): 6.51
- CalX (minimum concentration to double caspase 3/7) (U-2940): 0.43
- CalX (minimum concentration to double caspase 3/7) (Farage): 0.47
